The values below come from paper PMC6934184, “Selective DNA-PKcs inhibition extends the therapeutic index of localized radiotherapy and chemotherapy” (The Journal of Clinical Investigation, 2019).

For the experiment, the target named is T1, AMPK (A2/B2/G2) (Homo sapiens, UniProt P54646).
T1 construct: purchased Thermo Fisher Scientific (Life Technologies) SelectScreen
As to the kind of experiment: SelectScreen LanthaScreen. Type of experiment: binding. Particulars: read-out: % displacement. An outline of the steps:
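Percent values come from Thermo SelectScreen profiling of NU5455, combining activity and binding assays. CSF1R was run in Z'LYTE format at Km app ATP, and CAMK1 in Adapta format with ATP listed at 10.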

T1 sequence (P54646 whole entry): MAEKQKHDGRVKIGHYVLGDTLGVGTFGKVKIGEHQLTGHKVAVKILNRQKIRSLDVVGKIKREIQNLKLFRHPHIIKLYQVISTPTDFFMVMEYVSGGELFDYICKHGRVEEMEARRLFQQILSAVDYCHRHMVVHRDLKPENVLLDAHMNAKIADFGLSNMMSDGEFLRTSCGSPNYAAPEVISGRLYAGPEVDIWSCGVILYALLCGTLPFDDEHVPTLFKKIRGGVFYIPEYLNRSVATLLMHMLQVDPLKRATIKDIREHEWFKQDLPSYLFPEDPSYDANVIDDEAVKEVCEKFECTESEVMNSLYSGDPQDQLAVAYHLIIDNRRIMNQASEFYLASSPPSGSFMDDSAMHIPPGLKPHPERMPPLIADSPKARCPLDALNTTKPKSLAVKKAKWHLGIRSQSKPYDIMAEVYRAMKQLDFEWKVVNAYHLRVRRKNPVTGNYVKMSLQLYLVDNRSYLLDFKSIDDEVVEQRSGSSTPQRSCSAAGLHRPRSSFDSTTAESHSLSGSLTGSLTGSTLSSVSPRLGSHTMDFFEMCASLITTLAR
T1 sequence (O43741 whole entry partner): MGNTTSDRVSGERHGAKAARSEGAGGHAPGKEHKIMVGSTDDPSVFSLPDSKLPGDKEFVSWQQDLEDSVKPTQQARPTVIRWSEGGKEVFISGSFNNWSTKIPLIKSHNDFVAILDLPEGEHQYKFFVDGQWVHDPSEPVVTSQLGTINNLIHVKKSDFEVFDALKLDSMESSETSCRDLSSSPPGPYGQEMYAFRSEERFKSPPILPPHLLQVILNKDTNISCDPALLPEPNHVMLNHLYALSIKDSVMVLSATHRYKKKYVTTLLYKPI
T1 sequence (Q9UGJ0 whole entry partner): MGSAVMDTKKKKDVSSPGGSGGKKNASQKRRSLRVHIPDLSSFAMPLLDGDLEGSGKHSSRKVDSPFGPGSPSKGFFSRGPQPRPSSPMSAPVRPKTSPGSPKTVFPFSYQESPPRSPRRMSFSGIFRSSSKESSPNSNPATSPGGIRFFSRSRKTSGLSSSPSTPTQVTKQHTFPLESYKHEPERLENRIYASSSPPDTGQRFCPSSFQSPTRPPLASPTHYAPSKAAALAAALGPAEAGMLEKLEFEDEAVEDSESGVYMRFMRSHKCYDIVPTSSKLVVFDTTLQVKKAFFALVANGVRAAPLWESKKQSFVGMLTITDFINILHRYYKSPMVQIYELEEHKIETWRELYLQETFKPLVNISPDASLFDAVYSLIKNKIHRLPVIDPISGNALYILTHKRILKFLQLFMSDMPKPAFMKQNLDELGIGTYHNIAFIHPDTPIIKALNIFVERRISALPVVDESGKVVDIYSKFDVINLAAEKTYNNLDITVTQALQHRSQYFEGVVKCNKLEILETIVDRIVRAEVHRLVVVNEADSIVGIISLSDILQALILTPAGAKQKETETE

Take `CN(C(=O)CN1CCOCC1)c1ccc2sc3c(-c4cccc5c(=O)cc(N6CC7CCC(C6)O7)oc45)cccc3c2c1` [NU5455]: the inhibition at 1 µM is -2.6%.
